Measurements from article PMC7851014 (Investigational New Drugs, 2020).
Where two headings read alike, the source gives them in different places.

Assays:
[1] = Ibrutinib and SMT-conjugate pharmacokinetics in human subjects (plasma of patients A and B); details: for Tmax / half-life / concentration at 1.4 h / concentration at 0.5 h / concentration at 0.8 h / concentration at 22.7 h / concentration at 22.2 h / concentration at 22.6 h / concentration at 2.5 h / concentration at 3.8 h / concentration at 1.5 h / concentration at 23.3 h / concentration at 2.8 h / concentration at 4.1 h / concentration at 4.4 h / concentration at 2.4 h / concentration at 3.9 h: human; for concentration at 2.5 h: sample ID 13, T 2.5 h; for concentration at 2.5 h / concentration at 3.8 h / concentration at 2.8 h / concentration at 4.1 h / concentration at 4.4 h / concentration at 2.4 h / concentration at 3.9 h: group max; for concentration at 2.8 h: sample ID 4, T 2.8 h; for concentration at 2.4 h: sample ID 12, T 2.4 h; for concentration at 3.9 h: sample ID 17, T 3.9 h
Method: (§1) For analysis, 200 μL acetonitrile containing the internal standards was added to 100 μL sample. After mixing and centrifuging, 200 μL supernatant was transferred, and thereafter the solvent was partially evaporated. Before the samples were analyzed by ultra-high-performance liquid chromatography with mass spectrometer detection [21], 100 μL of mobile phase (water:acetonitrile:formic acid, 90:10:0.1 (v:v:v)) was added.
When no time was available at all, the sample was omitted. […] Pharmacokinetic (PK) data was analyzed using the PKNCA package (version 0.8.1) [22] for the statistical software R (version 3.4.2) [23] and RStudio (version 1.1.383) [24].

[2] = Human ibrutinib metabolism during CYP3A4 inhibition (patient C, plasma, concomitant voriconazole); details: for half-life / AUC(0-t): human, plasma, oral; for AUC(0-t): 140 mg; for Exposure relative to Sum of quantified compounds / Exposure relative to ibrutinib: patient C, AUC0-24h,ss, concomitant voriconazole
Method: as §1
Time-concentration data of three patients were analyzed. […] When no time was available at all, the sample was omitted. […] Pharmacokinetic (PK) data was analyzed using the PKNCA package (version 0.8.1) [22] for the statistical software R (version 3.4.2) [23] and RStudio (version 1.1.383) [24].

[3] = Half-life of IGSH in human plasma; type: in vitro ADME; details: 37 °C, in vitro
[4] = system: ɣ-GT from equine kidney; assay: ɣ-glutamyl transferase assay (conversion of IGSH to ICGS); type: biochemical; details: approximate kinetic parameters
Method: IGSH was incubated with 50 mU/L ɣ-GT in a concentration range of 10–10,000 nM in phosphate buffer (100 mM, pH 7.4) at 37 °C. Michaelis-Menten kinetics were calculated by Eadie-Hofstee transformation.

[5] = Metabolism of IGSH in culture medium; type: in vitro ADME
Method: During ibrutinib incubations, IGSH was formed intracellularly and transported extracellularly where it was metabolized to ICGS and further to ICYS. IGSH and ICYS were mainly found intracellularly. […] Medium composition influences the metabolism of IGSH. IGSH was metabolized 32% faster in medium with 10% calf serum, when compared to serum-free samples. Medium that was pre-incubated with ciPTEC for 48 h (conditioned medium) was included in the experiments to investigate the possible role of secreted enzymes in the medium. The metabolism of IGSH to ICGS appeared to be 36% faster in conditioned medium.

[6] = system: ciPTEC; details: for detection as secondary bioactivation-metabolite of ICYS: ciPTEC
Method: Medium and cell lysate samples were taken at 1, 2, 3 and 4 h. Each time point was measured in duplicate. Preincubation (t0) analyte concentrations in medium were also analyzed.

[7] = system: BCRP; set-up: method as in PMID 27001813; details: cited from earlier work
[8] = molecular target: T1, ɣ-GT (Homo sapiens, UniProt P19440); assay: ɣ-GT inhibition in ciPTEC; type: cell-based; details: 100 μM acivicin pre-incubation 2.5 h, 2 μM ibrutinib, 4 h, intra- and extracellularly
T1 construct: host or cells: ciPTEC (human conditionally immortalized proximal tubule epithelial cells)
T1 sequence (P19440 whole entry): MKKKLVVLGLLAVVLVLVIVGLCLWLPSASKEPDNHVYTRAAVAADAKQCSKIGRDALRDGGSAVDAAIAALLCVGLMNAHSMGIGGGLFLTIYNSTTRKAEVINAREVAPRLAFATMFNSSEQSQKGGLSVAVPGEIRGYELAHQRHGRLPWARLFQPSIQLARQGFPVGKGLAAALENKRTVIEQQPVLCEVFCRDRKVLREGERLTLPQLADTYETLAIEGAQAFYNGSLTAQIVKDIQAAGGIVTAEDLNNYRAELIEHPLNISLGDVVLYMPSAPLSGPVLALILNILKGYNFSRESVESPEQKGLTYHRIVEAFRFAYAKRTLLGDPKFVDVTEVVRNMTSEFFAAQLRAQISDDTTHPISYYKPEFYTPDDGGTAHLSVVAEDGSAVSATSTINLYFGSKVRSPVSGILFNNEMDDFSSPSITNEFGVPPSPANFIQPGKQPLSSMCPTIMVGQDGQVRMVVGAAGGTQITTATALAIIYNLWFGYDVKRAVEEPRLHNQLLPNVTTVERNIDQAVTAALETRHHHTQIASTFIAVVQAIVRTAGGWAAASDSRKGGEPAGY
Method: The formation of metabolites in medium and cells was monitored after 4 h. Ɣ-GT activity in human plasma and calf serum was measured on a Beckmann Coulter AU5800 (Fullerton, CA, USA) clinical chemistry analyzer, with a limit of quantitation of 1 U/L.

[9] = system: ɣ-GT; set-up: method as in PMID 9178957; details: cited from earlier work
[10] = molecular target: dehydropeptidase I; details: cited from earlier work
[11] = system: GST; set-up: method as in PMID 8706007; details: cited from earlier work
[12] = system: GST; assay: GST activity in ciPTEC lysate; details: 100 μM, pre-incubating lysate for 2.5 h
[13] = 420 mg, patient A, sample ID 2, T 1.4 h, 1xdd 420mg, group abs
[14] = 420 mg, patient A, sample ID 5, T 0.5 h, 1xdd 420mg, group abs
[15] = 420 mg, patient A, sample ID 6, T 0.8 h, 1xdd 420mg, group abs
[16] = 420 mg, patient A, sample ID 8, T 22.7 h, 1xdd 420mg, group trough
[17] = 420 mg, patient A, sample ID 10, T 22.2 h, 1xdd 420mg, group trough
[18] = 420 mg, patient A, sample ID 11, T 22.6 h, 1xdd 420mg, group trough
[19] = 420 mg, patient A, sample ID 14, T 3.8 h, 1xdd 420mg
[20] = 420 mg, patient A, sample ID 16, T 1.5 h, 1xdd 420mg, group abs
[21] = 420 mg, patient A, sample ID 19, T 23.3 h, 1xdd 420mg, group trough
[22] = 420 mg, patient A, sample ID 21, T 0.8 h, 1xdd 420mg, group abs
[23] = 560 mg, patient A, sample ID 3, T 0.8 h, 1xdd 560mg, group abs
[24] = 560 mg, patient B, sample ID 7, T 4.1 h, 1xdd 560mg
[25] = 560 mg, patient B, sample ID 9, T 4.4 h, 1xdd 560mg
[26] = 560 mg, patient B, sample ID 20, T 3.8 h, 1xdd 560mg
[27] = 560 mg, patient B, sample ID 23, T 4.1 h, 1xdd 560mg
[28] = 560 mg, patient B, sample ID 24, T 4.4 h, 1xdd 560mg
[29] = patient A, sample ID 15, T NA, 1xdd 420mg, omitted (no group)
[30] = patient A, sample ID 22, T NA, 1xdd 420mg, omitted (no group)

| SMILES | Tmax [1] [h] | half-life [1] [h] | concentration at 1.4 h [1, 13] [nM] | concentration at 0.5 h [1, 14] [nM] | concentration at 0.8 h [1, 15] [nM] | concentration at 22.7 h [1, 16] [nM] | concentration at 22.2 h [1, 17] [nM] | concentration at 2.5 h ([1]; 420 mg, patient A, 1xdd 420mg) [nM] | concentration at 3.8 h [1, 19] [nM] | concentration at 0.8 h [1, 23] [nM] | concentration at 2.8 h ([1]; 560 mg, patient B, 1xdd 560mg) [nM] | concentration at 4.1 h [1, 24] [nM] | concentration at 4.4 h [1, 25] [nM] | concentration at 2.4 h ([1]; 560 mg, patient B, 1xdd 560mg) [nM] | concentration at 3.9 h ([1]; 560 mg, patient B, 1xdd 560mg) [nM] | concentration at 3.8 h [1, 26] [nM] | concentration at 4.1 h [1, 27] [nM] | concentration at 4.4 h [1, 28] [nM] | Concentration [1, 29] | Concentration [1, 30] | further results |
| --- | --- | --- | --- | --- | --- | --- | --- | --- | --- | --- | --- | --- | --- | --- | --- | --- | --- | --- | --- | --- | --- |
| Nc1ncnc2c1c(-c1ccc(Oc3ccccc3)cc1)nn2[C@@H]1CCCN(C(=O)C(O)CO)C1 (some centres unmarked) [DHI, dihydrodiol-ibrutinib] | 3.9 | 6.1 | 43.9 | 51.6 | 48.3 | 86.6 | 90.7 | 404 | 195 | 17.5 | 346 | 523 | 393 | 450 | 542 | 524 | 468 | 484 | 59.3 nM | < LLOQ | concentration at 22.6 h [1, 18]: 45.3 nM; concentration at 1.5 h [1, 20]: 24 nM; concentration at 23.3 h [1, 21]: 30.5 nM; concentration at 0.8 h [1, 22]: 188 nM; half-life [2]: 59 h; AUC(0-t) [2]: 0.149 µM·h; Exposure relative to Sum of quantified compounds [2]: 23%; Exposure relative to ibrutinib [2]: 46% |
| CSCCC(=O)N1CCC[C@@H](n2nc(-c3ccc(Oc4ccccc4)cc3)c3c(N)ncnc32)C1 [S-methyl-ibrutinib] |  |  |  |  |  |  |  |  |  |  |  |  |  |  |  |  |  |  |  |  | detection as secondary bioactivation-metabolite of ICYS ([6]; after 48 h with ibrutinib): detected |
| C[C@@H](c1ncncc1F)[C@](O)(Cn1cncn1)c1ccc(F)cc1F [Voriconazole] |  |  |  |  |  |  |  |  |  |  |  |  |  |  |  |  |  |  |  |  | inhibition of BCRP [7]: some inhibition |
| N[C@H](C(=O)O)[C@@H]1CC(Cl)=NO1 [acivicin] |  |  |  |  |  |  |  |  |  |  |  |  |  |  |  |  |  |  |  |  | effect on metabolism of IGSH in ciPTEC [8]: blocked; IC99 [9]: 50 µM |
| CC1(C)C[C@@H]1C(=O)N/C(=C\CCCCSC[C@H](N)C(=O)O)C(=O)O [cilastatin] |  |  |  |  |  |  |  |  |  |  |  |  |  |  |  |  |  |  |  |  | IC50 [10]: 100 µM |
| C=C(CC)C(=O)c1ccc(OCC(=O)O)c(Cl)c1Cl [ethacrynic acid] |  |  |  |  |  |  |  |  |  |  |  |  |  |  |  |  |  |  |  |  | IC97 [11]: 15 µM; effect on formation of IGSH in ciPTEC lysate [12]: inhibited |
| Nc1ncnc2c1c(-c1ccc(Oc3ccccc3)cc1)nn2C1CCCN(C(=O)CCSC2OC(C(=O)O)C(O)C(O)C2O)C1 (centres unmarked) [ibrutinib-S-glucuronide] |  |  |  |  |  |  |  |  |  |  |  |  |  |  |  |  |  |  |  |  | detection as secondary bioactivation-metabolite of ICYS ([6]; 4 h incubation with ibrutinib): clearly found |

Further lines, with some results ahead:

| Tmax [1] [h] | half-life [1] [h] | concentration at 1.4 h [1, 13] [nM] | concentration at 0.5 h [1, 14] [nM] | concentration at 0.8 h [1, 15] [nM] | concentration at 22.7 h [1, 16] [nM] | concentration at 22.2 h [1, 17] [nM] | concentration at 2.5 h ([1]; 420 mg, patient A, 1xdd 420mg) [nM] | concentration at 3.8 h [1, 19] [nM] | concentration at 0.8 h [1, 23] [nM] | concentration at 2.8 h ([1]; 560 mg, patient B, 1xdd 560mg) [nM] | concentration at 4.1 h [1, 24] [nM] | concentration at 4.4 h [1, 25] [nM] | concentration at 2.4 h ([1]; 560 mg, patient B, 1xdd 560mg) [nM] | concentration at 3.9 h ([1]; 560 mg, patient B, 1xdd 560mg) [nM] | concentration at 3.8 h [1, 26] [nM] | concentration at 4.1 h [1, 27] [nM] | concentration at 4.4 h [1, 28] [nM] | Concentration [1, 29] | Concentration [1, 30] | SMILES | further results |
| --- | --- | --- | --- | --- | --- | --- | --- | --- | --- | --- | --- | --- | --- | --- | --- | --- | --- | --- | --- | --- | --- |
| 2.6 | 3 | 6.7 | 5.4 | 7.3 | 5.6 | 3.7 | 412 | 72.5 | 9.7 | 160 | 191 | 88.1 | 73.2 | 226 | 78 | 239 | 160 | 5.1 nM | < LLOQ | Nc1ncnc2c1c(-c1ccc(Oc3ccccc3)cc1)nn2[C@@H]1CCCN(C(=O)CCSC[C@H](N)C(=O)NCC(=O)O)C1 [ICGS] | concentration at 22.6 h [1, 18]: 3 nM; concentration at 1.5 h [1, 20]: 2.2 nM; concentration at 23.3 h [1, 21]: 0.6 nM; concentration at 0.8 h [1, 22]: 11.9 nM; half-life [2]: 40.1 h; AUC(0-t) [2]: 0.0949 µM·h; Exposure relative to Sum of quantified compounds [2]: 14%; Exposure relative to ibrutinib [2]: 29% |
| 4.4 | 4.2 | 5 | 5.1 | 5.6 | 6.4 | 5 | 186 | 32.1 | 3.9 | 92.8 | 170 | 89.2 | 210 | 143 | 78.7 | 194 | 210 | 12.1 nM | < LLOQ | Nc1ncnc2c1c(-c1ccc(Oc3ccccc3)cc1)nn2[C@@H]1CCCN(C(=O)CCSC[C@H](N)C(=O)O)C1 [ICYS] | concentration at 22.6 h [1, 18]: 4.7 nM; concentration at 1.5 h [1, 20]: 2.3 nM; concentration at 23.3 h [1, 21]: 2.6 nM; concentration at 0.8 h [1, 22]: 12 nM; half-life [2]: 78.3 h; AUC(0-t) [2]: 0.0877 µM·h; Exposure relative to Sum of quantified compounds [2]: 13%; Exposure relative to ibrutinib [2]: 27% |
| 2.8 |  |  |  |  |  |  | 1.5 | 0.5 | 0.5 | 3.5 | 1.5 | 0.8 | 0.8 | 1.9 | 0.8 | 2.2 | 1.4 | < LLOQ | < LLOQ | Nc1ncnc2c1c(-c1ccc(Oc3ccccc3)cc1)nn2[C@@H]1CCCN(C(=O)CCSC[C@H](NC(=O)CC[C@H](N)C(=O)O)C(=O)NCC(=O)O)C1 [IGSH] | half-life at 500 nM [3]: 0.5 h; Km [4]: 0.588 µM; Vmax [4]: 25.8 μmol∙min^−1∙U^−1; metabolism of IGSH to ICGS faster ([5]; conditioned medium (pre-incubated with ciPTEC for 48 h)): 36%; IGSH metabolized faster ([5]; medium with 10% calf serum compared to serum-free samples): 32%; uptake into ciPTEC ([6]; incubating with IGSH (1 μM) directly for 4 h): no uptake; Concentration ([1]; patient A, sample ID 2, T 1.4 h, 1xdd 420mg, group abs): < LLOQ; Concentration ([1]; patient A, sample ID 5, T 0.5 h, 1xdd 420mg, group abs): < LLOQ; Concentration ([1]; patient A, sample ID 6, T 0.8 h, 1xdd 420mg, group abs): < LLOQ; Concentration ([1]; patient A, sample ID 8, T 22.7 h, 1xdd 420mg, group trough): < LLOQ; Concentration ([1]; patient A, sample ID 10, T 22.2 h, 1xdd 420mg, group trough): < LLOQ; Concentration ([1]; patient A, sample ID 11, T 22.6 h, 1xdd 420mg, group trough): < LLOQ; Concentration ([1]; patient A, sample ID 16, T 1.5 h, 1xdd 420mg, group abs): < LLOQ; Concentration ([1]; patient A, sample ID 19, T 23.3 h, 1xdd 420mg, group trough): < LLOQ; Concentration ([1]; patient A, sample ID 21, T 0.8 h, 1xdd 420mg, group abs): < LLOQ; Ctrough ([1]; patients A and B, 'trough' samples n = 4, mean ± SD (range)): <0.5 nM |
